The target in one data set is T1, SLFN5 (Homo sapiens, UniProt Q08AF3).
T1 construct: recombinant
T1 sequence (Q08AF3 1-891): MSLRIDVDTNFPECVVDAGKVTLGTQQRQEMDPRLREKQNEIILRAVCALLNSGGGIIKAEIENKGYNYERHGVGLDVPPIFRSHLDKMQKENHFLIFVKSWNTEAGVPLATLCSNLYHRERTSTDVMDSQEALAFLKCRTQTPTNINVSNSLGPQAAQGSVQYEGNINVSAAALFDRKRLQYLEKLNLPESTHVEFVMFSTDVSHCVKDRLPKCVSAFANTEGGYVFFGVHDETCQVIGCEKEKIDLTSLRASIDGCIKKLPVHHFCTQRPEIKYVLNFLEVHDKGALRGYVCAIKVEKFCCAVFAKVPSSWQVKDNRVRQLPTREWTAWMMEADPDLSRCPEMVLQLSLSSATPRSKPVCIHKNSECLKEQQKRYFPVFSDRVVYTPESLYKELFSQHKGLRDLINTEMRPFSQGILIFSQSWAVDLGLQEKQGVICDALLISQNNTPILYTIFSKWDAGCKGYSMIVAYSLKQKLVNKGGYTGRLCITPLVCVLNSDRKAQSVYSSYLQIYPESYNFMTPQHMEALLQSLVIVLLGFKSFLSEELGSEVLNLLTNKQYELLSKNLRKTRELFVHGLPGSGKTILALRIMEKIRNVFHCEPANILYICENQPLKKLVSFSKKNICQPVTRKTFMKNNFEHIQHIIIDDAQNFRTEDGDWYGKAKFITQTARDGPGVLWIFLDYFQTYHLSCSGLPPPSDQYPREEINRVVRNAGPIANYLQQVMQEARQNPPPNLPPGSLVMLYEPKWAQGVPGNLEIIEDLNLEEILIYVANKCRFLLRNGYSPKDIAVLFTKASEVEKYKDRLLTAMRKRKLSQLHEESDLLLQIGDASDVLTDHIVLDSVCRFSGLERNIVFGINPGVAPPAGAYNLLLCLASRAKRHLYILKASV
In words: nanoDSF thermal unfolding (Tycho NT.[…]). Type of data set: binding. The following applies: 1 mM nucleotide, 300 nM protein; 25 mM Tris pH 7.5, 60 mM NaCl, 2 mM MgCl2, 1 mM DTT.

Data set [1] concerns the molecule itself. In words: cryo-EM structure; SLFN11^E209A at 5 uM; 50 mM glycine pH 9, 200 mM NaCl, 2 mM MgCl2, 1 mM DTT; dimer reconstructed in C2 symmetry; monomer reconstructed from another dataset.
Data set [2] concerns the molecule itself. In words: mass photometry; 50 nM SLFN11 in 25 mM Tris pH 7.5, 2 mM MgCl2, 1 mM DTT with variable concentrations of NaCl; 100 or 300 nM 60 nt ssDNA added in the stabilisation experiment; monomer-dimer equilibrium.

Take `Nc1ncnc2c1ncn2[C@@H]1O[C@H](COP(=O)(O)OP(=O)(O)OP(O)(O)=S)[C@@H](O)[C@H]1O` [ATPγS]: the unfolding temperature increase result on SLFN5 is “SLFN5 shows a significant increase in unfolding temperature in presence of ATP and ATPγS”.

Consider `Nc1ncnc2c1ncn2[C@@H]1O[C@H](COP(=O)(O)OP(=O)(O)OP(=O)(O)O)[C@@H](O)[C@H]1O` [ATP], for which the unfolding temperature increase result at SLFN5 is “SLFN5 shows a significant increase in unfolding temperature in presence of ATP and ATPγS”.

B1: full-length human SLFN11 E209A (enzyme, UniProt Q7Z7L1 1-901, looked up)
chain: MEANQCPLVVEPSYPDLVINVGEVTLGEENRKKLQKIQRDQEKERVMRAACALLNSGGGVIRMAKKVEHPVEMGLDLEQSLRELIQSSDLQAFFETKQQGRCFYIFVKSWSSGPFPEDRSVKPRLCSLSSSLYRRSETSVRSMDSREAFCFLKTKRKPKILEEGPFHKIHKGVYQELPNSDPADPNSDPADLIFQKDYLEYGEILPFPASQLVEFKQFSTKHFQEYVKRTIPEYVPAFANTGGGYLFIGVDDKSREVLGCAKENVDPDSLRRKIEQAIYKLPCVHFCQPQRPITFTLKIVNVLKRGELYGYACMIRVNPFCCAVFSEAPNSWIVEDKYVCSLTTEKWVGMMTDTDPDLLQLSEDFECQLSLSSGPPLSRPVYSKKGLEHKKELQQLLFSVPPGYLRYTPESLWRDLISEHRGLEELINKQMQPFFRGILIFSRSWAVDLNLQEKPGVICDALLIAQNSTPILYTILREQDAEGQDYCTRTAFTLKQKLVNMGGYTGKVCVRAKVLCLSPESSAEALEAAVSPMDYPASYSLAGTQHMEALLQSLVIVLLGFRSLLSDQLGCEVLNLLTAQQYEIFSRSLRKNRELFVHGLPGSGKTIMAMKIMEKIRNVFHCEAHRILYVCENQPLRNFISDRNICRAETRKTFLRENFEHIQHIVIDEAQNFRTEDGDWYGKAKSITRRAKGGPGILWIFLDYFQTSHLDCSGLPPLSDQYPREELTRIVRNADPIAKYLQKEMQVIRSNPSFNIPTGCLEVFPEAEWSQGVQGTLRIKKYLTVEQIMTCVADTCRRFFDRGYSPKDVAVLVSTAKEVEHYKYELLKAMRKKRVVQLSDACDMLGDHIVLDSVRRFSGLERSIVFGIHPRTADPAILPNVLICLASRAKQHLYIFPWGGH
notes: Schlafen 11 (SLFN11), human, full length, nuclease active site mutant E209A; Made by site-directed mutagenesis of the wild-type construct; source: Trichoplusia ni High Five insect cells, expressed and purified as the wild-type protein
On to B1, for which the binding result in data set [1] is given as “binds”.

B2: full-length human SLFN11 (Schlafen 11), wild type (enzyme, UniProt Q7Z7L1 1-901, looked up)
chain: MEANQCPLVVEPSYPDLVINVGEVTLGEENRKKLQKIQRDQEKERVMRAACALLNSGGGVIRMAKKVEHPVEMGLDLEQSLRELIQSSDLQAFFETKQQGRCFYIFVKSWSSGPFPEDRSVKPRLCSLSSSLYRRSETSVRSMDSREAFCFLKTKRKPKILEEGPFHKIHKGVYQELPNSDPADPNSDPADLIFQKDYLEYGEILPFPESQLVEFKQFSTKHFQEYVKRTIPEYVPAFANTGGGYLFIGVDDKSREVLGCAKENVDPDSLRRKIEQAIYKLPCVHFCQPQRPITFTLKIVNVLKRGELYGYACMIRVNPFCCAVFSEAPNSWIVEDKYVCSLTTEKWVGMMTDTDPDLLQLSEDFECQLSLSSGPPLSRPVYSKKGLEHKKELQQLLFSVPPGYLRYTPESLWRDLISEHRGLEELINKQMQPFFRGILIFSRSWAVDLNLQEKPGVICDALLIAQNSTPILYTILREQDAEGQDYCTRTAFTLKQKLVNMGGYTGKVCVRAKVLCLSPESSAEALEAAVSPMDYPASYSLAGTQHMEALLQSLVIVLLGFRSLLSDQLGCEVLNLLTAQQYEIFSRSLRKNRELFVHGLPGSGKTIMAMKIMEKIRNVFHCEAHRILYVCENQPLRNFISDRNICRAETRKTFLRENFEHIQHIVIDEAQNFRTEDGDWYGKAKSITRRAKGGPGILWIFLDYFQTSHLDCSGLPPLSDQYPREELTRIVRNADPIAKYLQKEMQVIRSNPSFNIPTGCLEVFPEAEWSQGVQGTLRIKKYLTVEQIMTCVADTCRRFFDRGYSPKDVAVLVSTAKEVEHYKYELLKAMRKKRVVQLSDACDMLGDHIVLDSVRRFSGLERSIVFGIHPRTADPAILPNVLICLASRAKQHLYIFPWGGH
notes: Schlafen 11 (SLFN11), human, full length; domains: Slfn core 1-353, linker 354-576, helicase 577-901; residues 7-899 built in the model; The construct has an HRV 3C cleavage site after the N-terminal double FLAG tag; The protein was eluted with Flag peptide and no cleavage is described; It is in a monomer-dimer equilibrium in solution; also called SLFN11^wt; source: SEC for cryo-EM samples
The stoichiometry N is the number of molecules, sites or subunits per partner or assembly. As to B2, the “stoichiometry N” value in data set [2] was found to be 2.

For the origin of these results see paper PMC9482658, “Mechanistic understanding of human SLFN11” (Nature Communications, 2022).
